{"source": "patent US20030013637A1", "about": "“Novel anti-autoimmune composition by inhibition of GRF action” (priority 2001, published 2003)", "tested_on": "EAE-induced PLSJLF1/J mice", "assay": "Effect of GRF antagonist administration on experimental autoimmune encephalomyelitis (EAE) induced by rabbit MBP immunization and pertussis toxin", "type": "in vivo", "protocol": "In order to investigate the affect of the administration of GRF antagonist on the onset of autoimmune disease, studies were conducted using experimental autoimmune encephalomyelitis (EAE), which is an experimental animal model of human multiple sclerosis.\nWild mice (PLSJLF1/J) (females purchased from The Jackson Laboratory) were used in the experiment. The mice were purchased at five weeks of age, and were reared under artificial lighting from 8:00 am to 8:00 pm every day throughout the experiment. The animals were allowed free access to water and solid food (CE-2; Japan CLEA).\nFirst, these mice (total ten animals) were sensitized by subcutaneous administration in the femoral area of 100 μL of an emulsion in a 1:1 mixture of complete Freund's adjuvant (CFA) (Difco Co.) to 2 mg/mL rabbit myelin basic protein (MBP) (manufactured by Sigma Co.) dissolved in physiological saline (manufactured by Otsuka Pharmaceutical Co. Ltd.). Pertussis toxin (manufactured by List Biological Laboratories) (200 ng) dissolved in physiological saline (manufactured by Otsuka Pharmaceutical Co. Ltd.) was intra-abdominally administered immediately after and two days after sensitization. In this manner, experimental autoimmune encephalomyelitis (EAE) was induced.\nNext, GRF antagonist was administered in compliance with the following procedures. The mice (total of ten animals) that had been MBP sensitized and administered pertussis toxin were divided into two groups. One group (five animals) was subcutaneously administered in the dorsal neck region 30 μg of GRF antagonist (MZ-4-71; manufactured by the US company Calbiochem Novabiochem) per mouse once per day from the eighth to 15th day after MBP sensitization (MZ-4-71 administration group). The other group (five animals) was subcutaneously administered in the dorsal neck region an equal amount of physiological saline in the same way as a control once per day from the eighth to 15th day after MBP sensitization (saline administration group). All animals were allowed free access to food and water throughout the entire rearing period including during the aforementioned experimental period.\nThe body weight of each mouse was measured every day. The EAE symptoms were observed. and EAE symptom scores were recorded based on the following criteria.\n0: No symptoms, 1: Paralysis of tail, 2: Mild paralysis of rear legs, 3: Moderate to severe paralysis of rear legs or mild paralysis of front legs, or both, 4: Complete paralysis of rear legs or moderate to severe paralysis of front legs, or both, 5: Paralysis of all four limbs or struggling with death, 6: Death"}
{"substance": "[Ibu^0, D-Arg^2, Phe(4-Cl)^6, Abu^15, Nle^27]hGHRH-(1-28)Agm [MZ-4-71]", "values": [{"measurement": "beginning of EAE onset", "setting": "PLSJLF1/J mice, 30 μg per mouse s.c. once per day, day 8 to 15 after MBP sensitization, FIG. 2(A)", "value": 11, "unit": "post-sensitization day"}, {"measurement": "beginning of flare-ups", "setting": "after remission, 30 μg per mouse s.c. once per day, day 8-15", "value": 20, "unit": "post-sensitization day"}, {"measurement": "mean EAE score", "setting": "beginning post-sensitization day 17, remissions in all the mice, 30 μg per mouse s.c. once per day, day 8-15", "value": 0}, {"measurement": "mean EAE score", "setting": "post-sensitization day 13, 30 μg per mouse s.c. once per day, day 8-15, score scale 0-6", "value": 0.3}, {"measurement": "peak mean EAE score", "setting": "post-sensitization day 23, peak over subsequent observation period, 30 μg per mouse s.c. once per day, day 8-15", "value": 2.2}, {"measurement": "EAE onset percentage", "setting": "post-sensitization day 26, 30 μg per mouse s.c. once per day, day 8-15, FIG. 2(B)", "value": "not more than 60%"}, {"measurement": "EAE scores compared to the saline administration group", "setting": "time course of mean values, FIG. 2(A)", "value": "lower EAE scores"}, {"measurement": "beginning of EAE onset compared to the saline administration group", "setting": "time course of onset percentage, FIG. 2(B)", "value": "a delay in the beginning of EAE onset"}]}
